Test results as given in the supplement of paper PMC10307832.

Key:
Test in all cases: relative viability (nuclei count vs DMSO), 5 days (fraction); higher = more cells survive
VE-821 + Bortezomib = compound: CS(=O)(=O)c1ccc(-c2cnc(N)c(C(=O)Nc3ccccc3)n2)cc1 [VE-821] + CC(C)C[C@H](NC(=O)[C@H](Cc1ccccc1)NC(=O)c1cnccn1)B(O)O [Bortezomib] (partner 0.002 µM)
Outline: (§1)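 After 5 days of treatment, lung cancer cells in 1536-well plates were fixed and stained in a single step (final 0.05% Triton X-100, 1% formaldehyde, 1 ug/ml Hoechst) and their nuclei counted on 4× images. Treatment had been applied by pin tool the day after seeding as one drug alone or as a fixed anchor-drug dose with five library-drug doses (not always all listed) in √10 steps. Relative viability is the nuclei count of treated wells divided by that of vehicle wells, and values are medians of duplicate plates.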

VE-821 + Phenformin = compound: CS(=O)(=O)c1ccc(-c2cnc(N)c(C(=O)Nc3ccccc3)n2)cc1 [VE-821] + N=C(N)NC(=N)NCCc1ccccc1 [Phenformin] (partner 250 µM)
Outline: as §1

Ruxolitinib + Dasatinib = compound: N#CC[C@H](C1CCCC1)n1cc(-c2ncnc3[nH]ccc23)cn1 [Ruxolitinib] + Cc1nc(Nc2ncc(C(=O)Nc3c(C)cccc3Cl)s2)cc(N2CCN(CCO)CC2)n1 [Dasatinib] (partner 0.075 µM)
Outline: as §1

VE-821 + Linsitinib = compound: CS(=O)(=O)c1ccc(-c2cnc(N)c(C(=O)Nc3ccccc3)n2)cc1 [VE-821] + C[C@]1(O)C[C@@H](c2nc(-c3ccc4ccc(-c5ccccc5)nc4c3)c3c(N)nccn32)C1 [Linsitinib] (partner 1 µM)
Outline: as §1

| Cell Line | relative viability (VE-821 + Bortezomib; first compound 0.08 µM) | relative viability (VE-821 + Bortezomib; first compound 0.253 µM) | relative viability (VE-821 + Bortezomib; first compound 0.8 µM) | relative viability (VE-821 + Bortezomib; first compound 2.53 µM) | relative viability (VE-821 + Bortezomib; first compound 8 µM) | relative viability (VE-821 + Phenformin; first compound 0.08 µM) | relative viability (VE-821 + Phenformin; first compound 0.253 µM) | relative viability (VE-821 + Phenformin; first compound 2.53 µM) | relative viability (VE-821 + Phenformin; first compound 8 µM) | relative viability (Ruxolitinib + Dasatinib; first compound 0.08 µM) | relative viability (Ruxolitinib + Dasatinib; first compound 0.253 µM) | relative viability (Ruxolitinib + Dasatinib; first compound 0.8 µM) | relative viability (Ruxolitinib + Dasatinib; first compound 2.53 µM) | relative viability (Ruxolitinib + Dasatinib; first compound 8 µM) | relative viability (VE-821 + Linsitinib; first compound 0.08 µM) | relative viability (VE-821 + Linsitinib; first compound 0.253 µM) | relative viability (VE-821 + Linsitinib; first compound 0.8 µM) | relative viability (VE-821 + Linsitinib; first compound 2.53 µM) | relative viability (VE-821 + Linsitinib; first compound 8 µM) | relative viability (VE-821 + Phenformin; first compound 0.8 µM) |
| --- | --- | --- | --- | --- | --- | --- | --- | --- | --- | --- | --- | --- | --- | --- | --- | --- | --- | --- | --- | --- |
| NCI-H1975 | 0.482 | 0.333 | 0.381 | 0.393 | 0.347 | 0.397 | 0.394 | 0.418 | 0.36 | 0.387 | 0.374 | 0.357 | 0.363 | 0.227 | 0.932 | 0.92 | 0.876 | 0.862 | 0.658 |  |
| NCI-H727 | 0.872 | 0.817 | 0.741 | 0.761 | 0.493 | 0.503 | 0.552 | 0.537 | 0.385 | 0.396 | 0.303 | 0.456 | 0.469 | 0.451 | 0.31 | 0.337 | 0.251 | 0.335 | 0.22 | 0.547 |
| CAL-12T | 1.04 | 0.984 | 1.13 | 0.996 | 0.717 | 0.585 | 0.526 | 0.523 | 0.396 | 0.497 | 0.546 | 0.561 | 0.25 | 0.163 | 0.94 | 0.805 | 0.725 | 0.891 | 0.956 | 0.611 |
| NCI-H441 | 0.622 | 0.967 | 0.552 | 0.705 | 0.405 | 1.02 | 0.988 | 1.02 | 0.842 | 0.507 | 0.432 | 0.698 | 0.396 | 0.672 | 0.762 | 0.666 | 0.651 | 0.821 | 0.42 | 1.02 |
| RERF-LC-KJ | 1.15 | 1.13 | 0.957 | 1.03 | 0.82 | 0.397 | 0.361 | 0.407 | 0.41 | 0.886 | 0.742 | 0.942 | 0.737 | 0.635 | 0.902 | 0.871 | 0.819 | 0.875 | 0.753 | 0.377 |
| NCI-H838 | 0.912 | 0.855 | 0.485 | 1.22 | 0.652 | 0.605 | 0.454 | 0.599 | 0.385 | 0.253 | 0.251 | 0.286 | 0.211 | 0.211 | 1.13 | 0.992 | 0.913 | 1.11 | 0.913 | 0.528 |
